Assays:
primary human RPE cells = test: Primary human RPE cells treated with 10 μM OAβ +/- ELVs (SA-β-Gal staining, qPCR); format: cell-based; conditions: 3 days qPCR, 7 days staining
Procedure: (A) In vitro experimental design: Primary human RPE cells were treated with 10 μM OAβ+/−ELVs. After 3 days, RNA was isolated and qPCR analyzed. After 7 days, cells were subjected to β-Galactosidase staining. (B) Live cell images under bright field microscopy after 7 days. (C) β-Gal staining+/−ELVs. Quantitation of % for the β-Gal positive cells. ELVs decreased positive senescent cells. (D) Gene transcription of senescence, AMD-related and autophagy genes after OAβ (1-42) exposure+/−ELVs. (*P <0.05, student t-test).
OAβ toxicity is counteracted by ELVs in primary hRPE. (A) Primary hRPE cells were treated with 10 μM OAβ with or without adding ELVs. After 3 days, the total RNA was isolated and q-PCR analyzed. After 7 days, cells were subjected to β-Galactosidase staining. (B) Live cell images of primary hRPE under bright field microscope imaging after 7 days. (C) β-Galactosidase staining of primary hRPE, +/−ELVs. Quantitation of % for the β-Gal positive cells. ELVs decreased positive senescent cells. […]
Cells were visualized using SA-β-Gal staining kit (Cat 9860, Cell Signaling Technology, MA, USA). […] Pictures were taken under brightfield microscope (Nikon Eclipse TS100) 200× magnification after the development of blue color, and cells counted in 10 different random fields per well. […]

hypothalamic neurons = test: Fluoro-Jade B staining of organotypic hypothalamus slices; format: cell-based, db/db mice; conditions: 500 nM, 48 h incubation; db/db hypothalamus slices
Procedure: Fluoro-Jade b (F-Jb) stains degenerating neurons. […] 48 h incubation with 500 nM ELV34 elicited neuroprotection that was reflected in the decrease of F-Jb signal (a).

[1] = test system: human diabetic and non-diabetic adipocytes; test: TP53 and IL8 expression (Taqman Real time PCR) in human adipocytes treated with IL1β; format: cell-based
Procedure: A) experimental design. B) expression levels of TP53 and IL8 in human diabetic and non-diabetic adipocytes by the means of Taqman Real time PCR.
IL1β is a cytokine that induce insulin resistance in adipocytes 18 • Similarly, IL8 was elevated by IL1β and brought down around 40 folds by 500 nM ELV34 in both diabetic and non-diabetic adipocytes. Even though the mechanisms are unknown ELV34 can be a therapeutic agent to stop or halt damaging signaling observed in diabetic patients.

[2] = methyl ester or sodium salt; administered 1 hour following 2 hours of ischemia; cited from earlier work
[3] = test system: hypothalamus, SAT and VAT; test: Adiponectin levels in diabetic hypothalamus and adipose tissue; design: species or system db/db mice
db/db mice hypothalamus = test: IL6 (marker of SASP) induced by IL1β in diabetic mouse hypothalamus; format: cell-based
Excerpt: Different effects have been observed in female and male mice.

CC/C=C\C[C@H](O)\C=C/C=C/C=C/[C@H](O)C/C=C\C/C=C\CCCCCCCCCCCCCCC(=O)O [ELV-N-34]
OAβ effects: RPE cell morphology, SASP (SA-β-Gal), senescence, AMD, MMP and autophagy gene expression (primary human RPE cells): reverted these effects
F-Jb signal (degenerating neurons) (hypothalamic neurons): decrease
IL8 brought down ([1]; 500 nM, IL1β-elevated, diabetic and non-diabetic adipocytes): around 40 folds
levels of TP53 mRNA ([1]; adipocytes from diabetic patient treated with IL1β): down to non-diabetic control levels
effect of IL1β (TP53 and IL8 expression) ([1]; human diabetic adipocytes): revert the effect of IL1β
cell survival [2]: promoted cell survival
infarct volumes [2]: reduced infarct volumes
neurovascular unit disruption [2]: diminished neurovascular unit disruption
adiponectin in subcutaneous (SAT) and visceral adipose tissue (VAT) [3]: Differential effect
levels of Adiponectin ([3]; ELV34 treatment): increased
adiponectin in diabetic hypothalamus ([3]; female and males): trend of increase
levels of IL6 (marker of SASP) (db/db mice hypothalamus): reduced
